Data on 5 compounds can be found in PubChem BioAssay AID1259411 (Chemical Carcinogenesis Research Information System (CCRIS), 2018).

Calls of active or inactive are those of the source. The rule behind the calls is not given here.

The subject of the data set is rodent carcinogenicity bioassays, tumor incidence. The data set can be described thus: CCRIS carcinogenicity studies. The essentials: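 Archive of carcinogenicity, mutagenicity, tumor promotion and tumor inhibition results drawn from journals, NCI reports and other sources, expert-reviewed; covers 1985-2011 and is no longer updated.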

As for `O=NO`, the carcinogen call is “inactive; negative” (Species: MOUSE, Strain/Sex: B6C3F1/FEMALE, Route: ORAL, Dose: 0, 30.7, 310 MG/D IN DRINKING WATER FOR LIFE ADMINISTERED TO MICE OF MOTHERS EXPOSED TO SAME DOSES THROUGH PREGNANCY AND, Dose: 0, 30.7, 310 MG/D IN DRINKING WATER FOR LIFE ADMINISTERED TO MICE OF MOTHERS EXPOSED TO SAME DOSES THROUGH PREGNANCY AND); “equivocal” (Species: MOUSE, Strain/Sex: B6C3F1/FEMALE, Route: ORAL, Dose: 0, 750, 1500, 3000 PPM IN DRINKING WATER FOR 104-105 WK (STUDY DURATION: 104-105 WK), Dose: 0, 750, 1500, 3000 PPM IN DRINKING WATER FOR 104-105 WK (STUDY DURATION: 104-105 WK), Tumor Site: Type of Lesion: FORESTOMACH: SQUAMOUS CELL PAPILLOMA OR CARCINOMA); “inactive; negative” (Species: MOUSE, Strain/Sex: B6C3F1/MALE, Route: ORAL, Dose: 0, 30.7, 310 MG/D IN DRINKING WATER FOR LIFE ADMINISTERED TO MICE OF MOTHERS EXPOSED TO SAME DOSES THROUGH PREGNANCY AND, Dose: 0, 30.7, 310 MG/D IN DRINKING WATER FOR LIFE ADMINISTERED TO MICE OF MOTHERS EXPOSED TO SAME DOSES THROUGH PREGNANCY AND); “inactive; negative” (Species: MOUSE, Strain/Sex: B6C3F1/MALE, Route: ORAL, Dose: 0, 750, 1,500, 3,000 PPM IN DRINKING WATER FOR 104-105 WK (STUDY DURATION: 104-105 WK), Dose: 0, 750, 1,500, 3,000 PPM IN DRINKING WATER FOR 104-105 WK (STUDY DURATION: 104-105 WK)); “inactive; negative” (Species: MOUSE, Strain/Sex: C57BL/FEMALE, Route: ORAL, Dose: 0, 30.7, 310 MG/D IN DRINKING WATER BEGINNING AT 7-8 WK OF AGE AND CONTINUING FOR STUDY DURATION (STUDY DURATION: LIFE S, Dose: 0, 30.7, 310 MG/D IN DRINKING WATER BEGINNING AT 7-8 WK OF AGE AND CONTINUING FOR STUDY DURATION (STUDY DURATION: LIFE S); “inactive; negative” (Species: MOUSE, Strain/Sex: VM/FEMALE, Route: ORAL, Dose: 0, 0.2% IN DRINKING WATER BEGINNING AT WEANING AND CONTINUING FOR DURATION STUDY (STUDY DURATION: LIFETIME)). Besides, the carcinogen call by setting is: (Species: MOUSE, Strain/Sex: VM/FEMALE, Route: ORAL, Dose: 0, 0.2% IN DRINKING WATER BEGINNING IN UTERO AND CONTINUING FOR DURATION OF STUDY (STUDY DURATION: LIFETIME)) “inactive; negative”; (Species: MOUSE, Strain/Sex: VM/MALE, Route: ORAL, Dose: 0, 0.2% IN DRINKING WATER BEGINNING AT WEANING AND CONTINUING FOR DURATION OF STUDY (STUDY DURATION: LIFETIME)) “inactive; negative”; (Species: MOUSE, Strain/Sex: VM/MALE, Route: ORAL, Dose: 0, 0.2% IN DRINKING WATER BEGINNING IN UTERO AND CONTINUING FOR DURATION OF STUDY (STUDY DURATION: LIFETIME)) “inactive; negative”; (Species: RAT, Strain/Sex: F344/FEMALE, Route: ORAL, Dose: 0, 750, 1,500, 3,000 PPM IN DRINKING WATER FOR 105 WK (STUDY DURATION: 105 WK), Dose: 0, 750, 1,500, 3,000 PPM IN DRINKING WATER FOR 105 WK (STUDY DURATION: 105 WK)) “inactive; negative”; (Species: RAT, Strain/Sex: F344/MALE,FEMALE, Route: ORAL, Dose: 0.125, 0.25% IN DRINKING WATER FOR 2 YR) “inactive; negative”; (Species: RAT, Strain/Sex: F344/MALE, Route: ORAL, Dose: 0, 0.2, 0.5% IN DIET FOR 115 WK (STUDY DURATION: 115 WK), Dose: 0, 0.2, 0.5% IN DIET FOR 115 WK (STUDY DURATION: 115 WK)) “inactive; negative”. For the setting “Species: RAT, Strain/Sex: F344/MALE, Route: ORAL, Dose: 0, 750, 1,500, 3,000 PPM IN DRINKING WATER FOR 105 WK (STUDY DURATION: 105 WK), Dose: 0, 750, 1,500, 3,000 PPM IN DRINKING WATER FOR 105 WK (STUDY DURATION: 105 WK)”, the carcinogen call is “inactive; negative”.

In the case of `CCCCCN(N=O)C(=O)OCC`, the carcinogen call (Species: RAT, Strain/Sex: DONRYU/FEMALE, Route: ORAL, Dose: 0, 100, 200, 400 PPM IN DRINKING WATER FOR 60 WK, Dose: 0, 100, 200, 400 PPM IN DRINKING WATER FOR 60 WK, Tumor Site: Type of Lesion: ORAL CAVITY: PAPILLOMA, CARCINOMA, ESOPHAGUS: PAPILLOMA, CARCINOMA, FORESTOMACH: PAPILLOMA, CARCINOMA, Tumor Site: Type of Lesion: ORAL CAVITY: PAPILLOMA, CARCINOMA, ESOPHAGUS: PAPILLOMA, CARCINOMA, FORESTOMACH: PAPILLOMA, CARCINOMA) is “active; positive”.

In the case of `Cc1ccc2c(c1)[C@H](Nc1nc(N)nc(C(C)F)n1)[C@@H](C)C2` (stereo partly drawn), the carcinogen call runs as follows: (Species: Mouse, Strain/Sex: C57BL/6J/Female (50/Group), Route: Oral, Dose: 0, 8.4, 42, 168 mg/kg/day of 93.14% indaziflam in diet for 18 mo, study duration 18 mo, Dose: 0, 8.4, 42, 168 mg/kg/day of 93.14% indaziflam in diet for 18 mo, study duration 18 mo) “inactive; negative”; (Species: Mouse, Strain/Sex: C57BL/6J/Male (50/Group), Route: Oral, Dose: 0, 6.8, 34, 142 mg/kg/day of 93.14% indaziflam in diet for 18 mo, study duration 18 mo, Dose: 0, 6.8, 34, 142 mg/kg/day of 93.14% indaziflam in diet for 18 mo, study duration 18 mo) “inactive; negative”; (Species: Rat, Strain/Sex: Wistar/Female (60/Group), Route: Oral, Dose: 0, 17, 167, 661 (wks 0-40), 452 (overall) mg/kg/day of 93.14% indaziflam in diet for 2 yr, study duration 2 yr, Dose: 0, 17, 167, 661 (wks 0-40), 452 (overall) mg/kg/day of 93.14% indaziflam in diet for 2 yr, study duration 2 yr) “inactive; negative”; (Species: Rat, Strain/Sex: Wistar/Male (60/Group), Route: Oral, Dose: 0, 12, 118, 414 mg/kg/day of 93.14% indaziflam in diet for 2 yr, study duration 2 yr, Dose: 0, 12, 118, 414 mg/kg/day of 93.14% indaziflam in diet for 2 yr, study duration 2 yr) “inactive; negative”.

As to `O=[N+]([O-])c1cc2c3c(ccc2c2ccccc12)[C@H](O)[C@@H](O)C=C3`, the carcinogen call reads like this: (Species: MOUSE, Strain/Sex: SWISS/FEMALE, Route: INTRAPERITONEAL, Dose: 0, 100 NMOL (TOTAL DOSE) 1/7, 2/7 AND 4/7 ADMINISTERED ON DAYS 1, 8 AND 15 OF LIFE RESPECTIVELY (STUDY DURATION: 32 WK), Tumor Site: Type of Lesion: LUNG: TUMOR) “active; positive”; (Species: MOUSE, Strain/Sex: SWISS/MALE, Route: INTRAPERITONEAL, Dose: 0, 100 NMOL (TOTAL DOSE) 1/7, 2/7 AND 4/7 ADMINISTERED ON DAYS 1, 8 AND 15 OF LIFE RESPECTIVELY (STUDY DURATION: 32 WK), Tumor Site: Type of Lesion: LUNG: TUMOR, LIVER: TUMOR) “active; positive”.

Regarding `CNc1ccc(N=Nc2ccccc2)cc1`, the carcinogen call is, setting by setting: (Species: MOUSE, Strain/Sex: B6C3F1/FEMALE, Route: INTRAPERITONEAL, Dose: 0, 0.3 UMOL/G IN TRIOCTANOIN ONCE ON DAY 1 FOLLOWED BY 0.4 UMOL/G ONCE ON DAY 8, 15 AND 22 (STUDY DURATION: 10 MO)) “inactive; negative”; (Species: MOUSE, Strain/Sex: B6C3F1/MALE, Route: INTRAPERITONEAL, Dose: 0, 0.017, 0.05, 0.15, 0.45 UMOL/G ONCE IN TRIOCTANOIN (STUDY DURATION: 10 MO), Dose: 0, 0.017, 0.05, 0.15, 0.45 UMOL/G ONCE IN TRIOCTANOIN (STUDY DURATION: 10 MO), Tumor Site: Type of Lesion: LIVER: HEPATOMA) “active; positive”; (Species: MOUSE, Strain/Sex: B6C3F1/MALE, Route: INTRAPERITONEAL, Dose: 0, 0.3 UMOL/G IN TRIOCTANOIN ONCE ON DAY 1 FOLLOWED BY 0.4 UMOL/G ONCE ON DAY 8, 15 AND 22 (STUDY DURATION: 10 MO), Tumor Site: Type of Lesion: LIVER: HEPATOMA) “active; positive”; (Species: MOUSE, Strain/Sex: C3H/MALE, Route: INTRAPERITONEAL, Dose: 0, 0.45 UMOL/G ONCE IN TRIOCTANOIN (STUDY DURATION: 11 MO), Tumor Site: Type of Lesion: LIVER: HEPATOMA) “active; positive”; (Species: MOUSE, Strain/Sex: C57BL/MALE, Route: INTRAPERITONEAL, Dose: 0, 0.45 UMOL/G ONCE IN TRIOCTANOIN (STUDY DURATION: 11 MO), Tumor Site: Type of Lesion: LIVER: HEPATOMA) “active; positive”; (Species: RAT, Strain/Sex: F344/MALE, Route: INTRAPERITONEAL, Dose: 0, 0.3 UMOL/G IN TRIOCTANOIN ONCE ON DAY 1 FOLLOWED BY 0.4 UMOL/G ONCE ON DAY 8, 15 AND 22 (STUDY DURATION: 24 MO), Tumor Site: Type of Lesion: LIVER: HEPTOCELLULAR CARCINOMA) “active; positive”. In addition, the carcinogen call (Species: RAT, Strain/Sex: SHERMAN, Route: ORAL, Dose: 0.056% IN DIET FOR 132 TO 250 D, Tumor Site: Type of Lesion: LIVER: HEPATOMA) is “active; positive” and the carcinogen call (Species: RAT, Strain/Sex: SPRAGUE-DAWLEY/MALE, Route: ORAL, Dose: 0.056% IN DIET FOR 4 MO, Tumor Site: Type of Lesion: LIVER: HEPATOMA) was “active; positive”.
